Tested on: SKN-1A
Assay: rpt-3p::GFP reporter in C. elegans strain GR2183
Assay type: in vivo, Caenorhabditis elegans
From the text: Firstly, we investigated whether RUN-89 triggers SKN-1A activation in C. elegans by using the GR2183 strain. By using this strain, the activation of SKN-1A is indicated by GFP expression, which is driven by the promoter of the proteasome subunit gene (rpt-3p::GFP).[80,81]
Figure S9. RUN-89 activates the NFE2L1 orthologue gene SKN-1A in C. elegans.
In the GR2183 strain, activation of the SKN-1A is reported by the expression of GFP under the control of the proteasome subunit gene promoter (rpt-3p::GFP). Animals were treated with 25 µM RUN-89 or DMSO (vehicle control) for 24 hours with subsequent microscopic analysis.
Results of relative GFP fluorescence intensity per single animal are presented. Overall, 71 animals (n | DMSO = 20, RUN-89 = 21) from three independent experiments ( N) were analyzed.
The two dashed horizontal lines indicate the interquartile range, and the thick horizontal line represents the median. A significant increase in fluorescence intensity after RUN-89 treatment was verified by a Kolmogorov-Smirnov test. ***p<0.001. […]
Transgenic GR2183 worms carrying the reporter gene (rpt -3p::GFP) were exposed to RUN-89 for 24 hours and for AM140 (rmIs132 [unc-54p::Q35::YFP]) to aged 6 days under treatment to establish protein aggregation model. The worms were then anesthetized with […] sodium azide and placed on glass slides with 5% agar for fluorescence microscope observation. […]

COc1ccc(/C=C2\CC(NC(=O)C3CCCC3)C/C(=C\c3ccc(OC)c(OC)c3)C2=O)cc1OC (centres unmarked) [RUN-89]
Average relative fluorescence intensity per GR2183 animal (25 μM, 24 h, 20 °C, young adults, versus vehicle): significantly higher | Median rpt-3p::GFP (SKN-1A reporter) (GR2183, DMSO median = 100.00, Figure S9): 114.62

— publication PMC12606464, “Investigating NFE2L1 activators for targeted protein aggregate clearance: a follow-up study” (RSC Medicinal Chemistry, 2025)
